From ChEMBL document CHEMBL1136396, “Discovery of 3-amino-4-chlorophenyl P1 as a novel and potent benzamidine mimic via solid-phase synthesis of an isoxazoline library” (Bioorg Med Chem Lett, 2003)
pKi: −log10 of the molar value.

Molecular target: T1, Coagulation factor X (Homo sapiens, UniProt P00742)
Experiment: Binding affinity against the coagulation factor X

T1 sequence (P00742 41-179 limits assumed): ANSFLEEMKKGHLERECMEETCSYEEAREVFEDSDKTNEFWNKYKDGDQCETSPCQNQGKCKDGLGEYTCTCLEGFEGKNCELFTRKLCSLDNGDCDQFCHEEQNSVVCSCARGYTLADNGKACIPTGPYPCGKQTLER
T1 sequence (P00742 235-488 limits assumed): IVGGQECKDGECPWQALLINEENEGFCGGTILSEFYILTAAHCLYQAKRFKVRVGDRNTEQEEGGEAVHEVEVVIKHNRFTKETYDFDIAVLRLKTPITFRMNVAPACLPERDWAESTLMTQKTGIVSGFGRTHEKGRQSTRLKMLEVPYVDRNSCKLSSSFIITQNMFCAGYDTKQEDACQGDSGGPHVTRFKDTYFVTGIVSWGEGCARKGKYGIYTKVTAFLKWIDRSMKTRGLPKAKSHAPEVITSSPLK

SMILES	pKi
NS(=O)(=O)c1ccccc1-c1ccc(NC(=O)C2CC(c3ccc(F)c(F)c3)=NO2)cc1 (configuration not stated)	5.34
NS(=O)(=O)c1ccccc1-c1ccc(NC(=O)C2CC(c3cccc(F)c3)=NO2)cc1 (configuration not stated)	5.11
NS(=O)(=O)c1ccccc1-c1ccc(NC(=O)C2CC(c3cccc(Cl)c3)=NO2)cc1 (configuration not stated)	5.23
NS(=O)(=O)c1ccccc1-c1ccc(NC(=O)C2CC(c3ccc(Br)cc3)=NO2)cc1 (configuration not stated)	5.39
NS(=O)(=O)c1ccccc1-c1ccc(NC(=O)C2CC(c3ccc(I)cc3)=NO2)cc1 (configuration not stated)	5.72
NS(=O)(=O)c1ccccc1-c1ccc(NC(=O)C2CC(c3ccc(Cl)cc3)=NO2)cc1 (configuration not stated)	6.00
CCCCCC1=NOC(C(=O)Nc2ccc(-c3ccccc3S(N)(=O)=O)cc2)C1 (configuration not stated)	5.35
COc1cccc(C2=NOC(C(=O)Nc3ccc(-c4ccccc4S(N)(=O)=O)cc3)C2)c1 (configuration not stated)	5.12

Molecular target: T1, Coagulation factor X
Experiment: Binding affinity against Coagulation factor X

SMILES	pKi
Nc1cc(C2=NOC(C(=O)Nc3ccc(-c4ccccc4S(N)(=O)=O)cc3)C2)ccc1Cl (configuration not stated)	6.89

Molecular target: T1, Coagulation factor X
Experiment: Binding affinity against the Factor Xa (FXa)

SMILES	pKi
NS(=O)(=O)c1ccccc1-c1ccc(NC(=O)C2CC(c3ccc4c(c3[N+](=O)[O-])OCO4)=NO2)cc1 (configuration not stated)	5.62
NS(=O)(=O)c1ccccc1-c1ccc(NC(=O)C2CC(c3ccc(Cl)cc3Cl)=NO2)cc1 (configuration not stated)	5.77
NS(=O)(=O)c1ccccc1-c1ccc(NC(=O)C2CC(c3cccc(I)c3)=NO2)cc1 (configuration not stated)	5.00
NS(=O)(=O)c1ccccc1-c1ccc(NC(=O)C2CC(c3ccccc3Cl)=NO2)cc1 (configuration not stated)	5.77
NS(=O)(=O)c1ccccc1-c1ccc(NC(=O)C2CC(c3ccccc3)=NO2)cc1 (configuration not stated)	4.96
Cc1ccc(C2=NOC(C(=O)Nc3ccc(-c4ccccc4S(N)(=O)=O)cc3)C2)cc1 (configuration not stated)	5.68
NS(=O)(=O)c1ccccc1-c1ccc(NC(=O)C2CC(/C=C/c3ccco3)=NO2)cc1 (configuration not stated)	5.64
NS(=O)(=O)c1ccccc1-c1ccc(NC(=O)C2CC(CCc3ccccc3)=NO2)cc1 (configuration not stated)	< 4.52
NS(=O)(=O)c1ccccc1-c1ccc(NC(=O)C2CC(c3cccs3)=NO2)cc1 (configuration not stated)	5.89
NS(=O)(=O)c1ccccc1-c1ccc(NC(=O)C2CC(c3ccc(-c4ccccc4)cc3)=NO2)cc1 (configuration not stated)	5.96
NS(=O)(=O)c1ccccc1-c1ccc(NC(=O)C2CC(c3cccc(C(=O)O)c3)=NO2)cc1 (configuration not stated)	< 4.52
NS(=O)(=O)c1ccccc1-c1ccc(NC(=O)C2CC(c3ccc(Cl)c(Cl)c3)=NO2)cc1 (configuration not stated)	5.57
NS(=O)(=O)c1ccccc1-c1ccc(NC(=O)C2CC(c3cccc(Br)c3)=NO2)cc1 (configuration not stated)	< 4.52
CO[C@@H]1[C@H]2OC(C)(C)O[C@H]2O[C@H]1C1=NOC(C(=O)Nc2ccc(-c3ccccc3S(N)(=O)=O)cc2)C1 (some centres not stated)	< 4.52
NS(=O)(=O)c1ccccc1-c1ccc(NC(=O)C2CC(c3ccc(C(F)F)cc3)=NO2)cc1 (configuration not stated)	5.80
NS(=O)(=O)c1ccccc1-c1ccc(NC(=O)C2CC(c3ccc(Cl)c(F)c3)=NO2)cc1 (configuration not stated)	5.60
NS(=O)(=O)c1ccccc1-c1ccc(NC(=O)C2CC(c3ccc4c(c3Cl)OCO4)=NO2)cc1 (configuration not stated)	5.77

SMILES	pKi
CCCCCCOc1ccccc1C1=NOC(C(=O)Nc2ccc(-c3ccccc3S(N)(=O)=O)cc2)C1 (configuration not stated)	5.74
NS(=O)(=O)c1ccccc1-c1ccc(NC(=O)C2CC(/C=C/c3ccccc3)=NO2)cc1 (configuration not stated)	5.64
NS(=O)(=O)c1ccccc1-c1ccc(NC(=O)C2CC(c3cc(I)c(O)c(I)c3)=NO2)cc1 (configuration not stated)	< 4.52
NS(=O)(=O)c1ccccc1-c1ccc(NC(=O)C2CC(c3ccc4c(c3)OCO4)=NO2)cc1 (configuration not stated)	6.31
COc1ccc(Br)cc1C1=NOC(C(=O)Nc2ccc(-c3ccccc3S(N)(=O)=O)cc2)C1 (configuration not stated)	< 4.52
COc1cc(C2=NOC(C(=O)Nc3ccc(-c4ccccc4S(N)(=O)=O)cc3)C2)ccc1O (configuration not stated)	4.70
NS(=O)(=O)c1ccccc1-c1ccc(NC(=O)C2CC(c3ccc4ccccc4c3)=NO2)cc1 (configuration not stated)	4.70
NS(=O)(=O)c1ccccc1-c1ccc(NC(=O)C2CC(c3cccc(O)c3)=NO2)cc1 (configuration not stated)	< 5.52
NS(=O)(=O)c1ccccc1-c1ccc(NC(=O)C2CC(c3ccc(O)cc3)=NO2)cc1 (configuration not stated)	4.66
CCCCCCCCCCC1=NOC(C(=O)Nc2ccc(-c3ccccc3S(N)(=O)=O)cc2)C1 (configuration not stated)	4.77
COc1ccc2ccccc2c1C1=NOC(C(=O)Nc2ccc(-c3ccccc3S(N)(=O)=O)cc2)C1 (configuration not stated)	< 5.52
NS(=O)(=O)c1ccccc1-c1ccc(NC(=O)C2CC(c3cccc(C(F)(F)F)c3)=NO2)cc1 (configuration not stated)	4.77
NS(=O)(=O)c1ccccc1-c1ccc(NC(=O)C2CC(c3c(O)ccc4ccccc34)=NO2)cc1 (configuration not stated)	< 4.52
NS(=O)(=O)c1ccccc1-c1ccc(NC(=O)C2CC(c3cccc4ccccc34)=NO2)cc1 (configuration not stated)	< 4.52
COc1ccc(C2=NOC(C(=O)Nc3ccc(-c4ccccc4S(N)(=O)=O)cc3)C2)cc1 (configuration not stated)	6.15
NS(=O)(=O)c1ccccc1-c1ccc(NC(=O)C2C[C+](c3ccc(Cl)c([N+](=O)[O-])c3)[N-]O2)cc1 (configuration not stated)	< 4.52
